The results in this text go back to patent publication US8404696B2, “Quinazoline-2,4-dione derivative, and medical compositions for the prophylaxis and treatment of cranial nerve disease containing the same” (Shin Poong Pharmaceutical Co., Ltd., priority 2008, dated 2013).

The test system of experiment [1] is mixed culture of nerve cells-glial cells. The experiment is described as follows: Protecting effect on NMDA-induced nerve cell death (LDH release). The class given is cell-based, ICR mouse. Conditions: 100 μM NMDA, LDH release after 24 hours. The method, boiled down:
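Embryonic day-14 ICR mouse cortical neurons seeded on cortical glia, Ara-C-treated, then exposed at day 12–15 for 20 min to 100 μM NMDA with compound at 1 or 2 μg/mL. LDH released 24 h later measured colorimetrically as a cell-death index.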
In general terms: Release of lactate dehydrogenase indicates damage to the cell membrane.

Another experiment relates to mouse brain cells. The experiment is described as follows: Inhibitory effect on ROS production in brain cells (DCF-DA, NMDA-induced). The experiment is classed as cell-based. As to conditions: 24 h; dose suppressing 50% of production of reactive oxygen compared to control; mouse brain cells; read-out: ROS inhibitory effect ID50. The method, then: Oxidative stress was measured to test inhibitory effects on the production of reactive oxygen species (ROS) by using DCF-DA, which is a fluorescent probe. Brain cells were obtained from brain cortex of mouse to prepare cell solution with 2×10^6 cells/ml. Each brain cell was treated with 11 μM of DCF-DA followed by reaction in 37° C., 5% CO2 incubator for an hour. After washing twice, Compound 3 was treated with a concentration of 125 μg/ml and 250 μg/ml. At the same time, 300 μM of NMDA was treated and it was incubated in 37° C., 5% CO2 incubator for 24 hours.
(§1) ROS inhibitory effect of compounds was represented to the dose suppressing 50% of production of reactive oxygen compared to control. […] The activity of superoxide dismutase (SOD) was measured by using a kit acquired in Sigma.

The subject of experiment [2] is superoxide dismutase (SOD). The experiment is described as follows: Increase of superoxide dismutase (SOD) activity in mouse brain cells. As to conditions: 100 μg/ml. The experiment is classed as cell-based. The method, then:
as §1

Experiment [3] concerns pentylentetrazole (PTZ)-induced convulsion. The experiment is described as follows: Anti-convulsant effect, pentylentetrazole (PTZ) test. The class given is in vivo. Conditions: 10 mg/kg intraperitoneally, PTZ 80 mg/kg subcutaneously; for mortality rate / Induction percentage of convulsion: (animals/total); for mortality rate: negative control 70(17/23); for Induction percentage of convulsion: negative control 100(23/23); for Initiation time of convulsion: negative control 5.0 ± 0.7; for Duration of convulsion: negative control 46.7 ± 3.3. In outline:
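Compound was given intraperitoneally at 10 mg/kg before PTZ challenge. The read-outs were time to convulsion onset, time until convulsions fully disappeared, and mortality.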

The next experiment relates to thoracic aorta of rats. The experiment is described as follows: Relaxing effect on thoracic aorta contracted by phenylephrine (organ bath). Further details: species or system rats of SD species. Conditions: Rattus norvegicus; 67 μg/mL; phenylephrine 0.5 μM; mean n = 3; read-out: Relaxation percentage. The method, boiled down:
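Thoracic aortic rings (2 mm) from ether-anesthetized male SD rats (250-300 g) were mounted in Krebs buffer gassed with 95% O2/5% CO2 and equilibrated at 1.0 g basal tension for 90 min. After stable contraction with phenylephrine (0.5 μM), compounds were added and relaxation recorded.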

≈ marks a conversion by molar mass, not a printed value.

For `O=C(OCc1ccccc1)N(CCCCNCCCn1c(=O)[nH]c2ccccc2c1=O)CCCn1c(=O)[nH]c2ccccc2c1=O` [Compound 39, [3-(2,4-dioxo-1,4-dihydro-2H-quinazolin-3-yl)propyl]-{4-[3-(2,4-dioxo-1,4-dihydro-2H-quinazolin-3-yl)propylamino]butyl}carbamic acid benzyl ester], the “Inhibitory effect of cell death by NMDA-induced excitable neurotoxicity” value (“Inhibitory effect of cell death” below) in experiment [1] (1 μg/ml compound) amounted to 30.8%. For the same compound, in experiment [1] (2 μg/ml compound), the “Inhibitory effect of cell death” value was 17.1%. Also, the IC50 with mouse brain cells was found to be 32.3 ± 20 µg/mL (≈ 51.5 µM). Moreover, the “Increase of SOD activity, compared to control” value (“Increase of SOD activity” below) in experiment [2] came to 19.0 ± 6.3. Moreover, in experiment [3], the mortality rate was 0(0/6) %, the “Induction percentage of convulsion” value was 100(6/6) %, the “Initiation time of convulsion” value was 9.5 ± 2.8 min and the Duration of convulsion was 19.8 ± 6.4 min. Also, in the experiment on thoracic aorta of rats, the inhibition at 67 µg/mL stood at 54.8%.

On to `O=c1[nH]c2ccccc2c(=O)n1CCNCCCNCCn1c(=O)[nH]c2ccccc2c1=O` [Compound 23, 3-(2-{3-[2-(2,4-dioxo-1,4-dihydro-2H-quinazolin-3-yl)ethylamino]propylamino}ethyl)-1H-quinazoline-2,4-dione], for which the “Inhibitory effect of cell death” value in experiment [1] (1 μg/ml compound) is on record as 36.0%. The “Inhibitory effect of cell death” value in experiment [1] (2 μg/ml compound) was determined as 32.2%. For the same compound, in the experiment on mouse brain cells, the IC50 stood at 55.5 ± 27.2 µg/mL (≈ 123 µM). Also, the “Increase of SOD activity” value in experiment [2] came to 4.0 ± 10. Also, in experiment [3], the mortality rate is 33(2/6) %, the “Induction percentage of convulsion” value is given as 100(6/6) %, the “Initiation time of convulsion” value was 9.3 ± 2.5 min and the Duration of convulsion stood at 28.7 ± 8.6 min. Further, the inhibition at 67 µg/mL with thoracic aorta of rats came to 20.4%.

For `COCC(=O)N(CCCCNCCCn1c(=O)[nH]c2ccccc2c1=O)CCCn1c(=O)[nH]c2ccccc2c1=O` [Compound 38, N-[3-(2,4-dioxo-1,4-dihydro-2H-quinazolin-3-yl)propyl]-N-{4-[3-(2,4-dioxo-1,4-dihydro-2H-quinazolin-3-yl)propylamino]butyl}-2-methoxyacetamide], the “Inhibitory effect of cell death” value in experiment [1] (1 μg/ml compound) is reported as 33.5%. The “Inhibitory effect of cell death” value in experiment [1] (2 μg/ml compound) is given as 13.5%. For the same compound, in the experiment on mouse brain cells, the IC50 amounted to 136 ± 11 µg/mL (≈ 241 µM). The “Increase of SOD activity” value in experiment [2] was 3.2 ± 4.9. Further, in experiment [3], the mortality rate is reported as 17(1/6) %, the “Induction percentage of convulsion” value is on record as 83(5/6) %, the “Initiation time of convulsion” value is given as 16.0 ± 9.0 min and the Duration of convulsion came out at 11.2 ± 7.3 min. In addition, the inhibition at 67 µg/mL with thoracic aorta of rats was 88.2%.

For the compound `O=C(N(CCCCN(CCCn1c(=O)[nH]c2ccccc2c1=O)C(=O)C(F)(F)F)CCCn1c(=O)[nH]c2ccccc2c1=O)C(F)(F)F` [Compound 37, N-[3-(2,4-dioxo-1,4-dihydro-2H-quinazolin-3-yl)propyl]-N-{4-[[3-(2,4-dioxo-1,4-dihydro-2H-quinazolin-3-yl)propyl]-(2,2,2-trifluoroacetyl)amino]butyl}-2,2,2-trifluoroacetamide], the results for the “Inhibitory effect of cell death” value in experiment [1] (1 μg/ml compound) and in experiment [1] (2 μg/ml compound) were 27.3% and 25.0%, respectively. In the experiment on mouse brain cells, the IC50 is 22.9 ± 17.3 µg/mL (≈ 33.5 µM). The “Increase of SOD activity” value in experiment [2] was determined as 2.0 ± 5.8. Further, the inhibition at 67 µg/mL in the experiment with thoracic aorta of rats was 7.9%.

Turning to `NCCCNCCCCNCCCn1c(=O)[nH]c2ccccc2c1=O` [Compound 1, 3-{3-[4-(3-aminopropylamino)butylamino]propyl}-1H-quinazoline-2,4-dione], in experiment [1] (1 μg/ml compound), the “Inhibitory effect of cell death” value worked out at 16.1%. Besides, the “Inhibitory effect of cell death” value in experiment [1] (2 μg/ml compound) is listed as 2.4%. Also, in the experiment with mouse brain cells, the IC50 amounted to 73 ± 14.1 µg/mL (≈ 210 µM). For the same compound, the “Increase of SOD activity” value in experiment [2] was determined as 0.7 ± 5.6. Further, in experiment [3], the mortality rate was 67(4/6) %, the “Induction percentage of convulsion” value is 83(5/6) %, the “Initiation time of convulsion” value was determined as 16.1 ± 9.0 min and the Duration of convulsion amounted to 43.9 ± 9.0 min. Moreover, the inhibition at 67 µg/mL with thoracic aorta of rats stood at 12.8%.

In the case of `CC(=O)N(CCCCN(CCCn1c(=O)[nH]c2ccccc2c1=O)Cc1ccccc1)CCCn1c(=O)[nH]c2ccccc2c1=O` [Compound 13, N-(4-{benzyl-[3-(2,4-dioxo-1,4-dihydro-2H-quinazolin-3-yl)propyl]amino}butyl)-N-[3-(2,4-dioxo-1,4-dihydro-2H-quinazolin-3-yl)propyl]acetamide], the entries for the “Inhibitory effect of cell death” value in experiment [1] (1 μg/ml compound) and in experiment [1] (2 μg/ml compound) were 17.4% and 23.0%, respectively. Also, in the experiment on mouse brain cells, the IC50 is 87.3 ± 10.9 µg/mL (≈ 140 µM). In experiment [2], the “Increase of SOD activity” value is on record as 7.6 ± 2.9. In addition, the inhibition at 67 µg/mL with thoracic aorta of rats turned out to be 9.3%.

For `O=c1[nH]c2ccccc2c(=O)n1CCCNCC=CCNCCCn1c(=O)[nH]c2ccccc2c1=O` [Compound 25, 3-(3-{4-[3-(2,4-dioxo-1,4-dihydro-2H-quinazolin-3-yl)propylamino]-2-butenylamino}propyl)-1H-quinazoline-2,4-dione], the “Inhibitory effect of cell death” value in experiment [1] (1 μg/ml compound) came to 35.2%. In addition, in experiment [1] (2 μg/ml compound), the “Inhibitory effect of cell death” value stood at 28.8%. The IC50 in the experiment on mouse brain cells is 104 ± 32.5 µg/mL (≈ 212 µM). For the same compound, the “Increase of SOD activity” value in experiment [2] amounted to 1.6 ± 9.3. In experiment [3], the mortality rate was 83(5/6) %, the “Induction percentage of convulsion” value is listed as 100(6/6) %, the “Initiation time of convulsion” value came out at 6.2 ± 1.5 min and the Duration of convulsion is listed as 48.3 ± 5.9 min. The inhibition at 67 µg/mL in the experiment with thoracic aorta of rats came to 20%.

With `CCCCCCN(CCCCN(CCCn1c(=O)[nH]c2ccccc2c1=O)C(=O)OC(C)(C)C)CCCn1c(=O)[nH]c2ccccc2c1=O` [Compound 30, [3-(2,4-dioxo-1,4-dihydro-2H-quinazolin-3-yl)propyl]-(4-{[3-(2,4-dioxo-1,4-dihydro-2H-quinazolin-3-yl)propyl]hexylamino}butyl)carbamic acid tert-butyl ester], the “Inhibitory effect of cell death” value in experiment [1] (1 μg/ml compound) was determined as 38.3%. Also, the “Inhibitory effect of cell death” value in experiment [1] (2 μg/ml compound) came to 44.4%. Besides, the IC50 in the experiment with mouse brain cells came out at 79.5 ± 15.7 µg/mL (≈ 117 µM). Further, the “Increase of SOD activity” value in experiment [2] is listed as 6.2 ± 6.2. Also, in experiment [3], the mortality rate is on record as 83(5/6) %, the “Induction percentage of convulsion” value is on record as 83(5/6) %, the “Initiation time of convulsion” value turned out to be 15.9 ± 9.0 min and the Duration of convulsion worked out at 44.1 ± 9.0 min. Also, the inhibition at 67 µg/mL in the experiment on thoracic aorta of rats is 40.4%.

Regarding `CCOC(=O)N(CCCCNCCCn1c(=O)[nH]c2ccccc2c1=O)CCCn1c(=O)[nH]c2ccccc2c1=O` [Compound 5, [3-(2,4-dioxo-1,4-dihydro-2H-quinazolin-3-yl)propyl]-{4-[3-(2,4-dioxo-1,4-dihydro-2H-quinazolin-3-yl)propylamino]butyl}carbamic Acid ethyl ester], the entries for the “Inhibitory effect of cell death” value in experiment [1] (1 μg/ml compound) and in experiment [1] (2 μg/ml compound) were 11.4% and 39.4%, respectively. For the same compound, the IC50 in the experiment on mouse brain cells stood at 24.4 ± 10.5 µg/mL (≈ 43.2 µM). For the same compound, the “Increase of SOD activity” value in experiment [2] is 2.5 ± 2.8. In the experiment on thoracic aorta of rats, the inhibition at 67 µg/mL stood at 19.2%.

For `Cc1ccc(S(=O)(=O)N(CCCCN(CCCn2c(=O)[nH]c3ccccc3c2=O)S(=O)(=O)c2ccc(C)cc2)CCCn2c(=O)[nH]c3ccccc3c2=O)cc1` [Compound 41, N-[3-(2,4-dioxo-1,4-dihydro-2H-quinazolin-3-yl)propyl]-N-(4-{[3-(2,4-dioxo-1,4-dihydro-2H-quinazolin-3-yl)propyl]-4-methylbenzenesulfonylamino}butyl)-4-methylbenzenesulfonamide], in experiment [1] (2 μg/ml compound), the “Inhibitory effect of cell death” value amounted to 28.5%. In addition, the IC50 with mouse brain cells was 27.2 ± 18.6 µg/mL (≈ 34 µM). Besides, the “Increase of SOD activity” value in experiment [2] was 2.0 ± 0.9. Also, the inhibition at 67 µg/mL in the experiment with thoracic aorta of rats was 7.1%.

With `O=C1CCC(=O)N1CCCNCCCCNCCCn1c(=O)[nH]c2ccccc2c1=O` [Compound 42, 3-(3-{4-[3-(2,5-dioxo-pyrrolidine-1-yl)propylamino]butylamino}propyl)-1H-quinazoline-2,4-dione], in experiment [1] (1 μg/ml compound), the “Inhibitory effect of cell death” value amounted to 24.6%. In experiment [1] (2 μg/ml compound), the “Inhibitory effect of cell death” value worked out at 21.8%. Moreover, the IC50 in the experiment with mouse brain cells was found to be 138 ± 21 µg/mL (≈ 321 µM). For the same compound, the “Increase of SOD activity” value in experiment [2] turned out to be 1.6 ± 2.6. Moreover, in experiment [3], the mortality rate was 17(1/6) %, the “Induction percentage of convulsion” value was 100(6/6) %, the “Initiation time of convulsion” value is listed as 9.8 ± 4.1 min and the Duration of convulsion is given as 18.2 ± 8.6 min. Besides, the inhibition at 67 µg/mL in the experiment with thoracic aorta of rats came out at 14.6%.
